For 10 compounds, IC50 results are on record in US8642601B2, “Inhibitors of JNK” (Roche Palo Alto LLC, priority 2010, dated 2014).

SMILES strings stand for the structures.

In this assay the test system is T1, JNK.
T1 construct: Human JNK2α2 assay contains 1 nM enzyme; Human JNK1α1 assay contains 2 nM enzyme
In words: JNK Assay in vitro (phosphorylation of GST-ATF2 (19-96) with [γ-33P] ATP). The format is biochemical. Conditions: JNK isoform not stated for Table 1 (method describes human JNK1α1, JNK2α2, JNK3); Km concentrations of ATP and substrate. The procedure:
JNK activity was measured by phosphorylation of GST-ATF2 (19-96) with [γ-^33P] ATP. The enzyme reaction was conducted at Km concentrations of ATP and the substrate at final volume of 40 μl in buffer containing 25 mM HEPES, pH 7.5, 2 mM dithiothreitol, 150 mM NaCl, 20 mM MgCl2, 0.001% Tween® 20, 0.1% BSA and 10% DMSO. Human JNK2α2 assay contains 1 nM enzyme, 1 μM ATF2, 8 μM ATP with 1 uCi [γ-^33P] ATP. Human JNK1α1 assay contains 2 nM enzyme, 1 μM ATF2, 6 μM ATP with 1 μCi [γ-^33P] ATP. Human JNK3 (Upstate Biotech #14-501M) assay contains 2 nM enzyme, 1 μM ATF2, 4 μM ATP with 1 μCi [γ-^33P] ATP. The enzyme assay was carried out in the presence or absence of several compound concentrations. JNK and compound were pre-incubated for 10 min., followed by initiation of the enzymatic reaction by adding ATP and the substrate. The reaction mixture was incubated at 30° C. for 30 min. At the end of incubation, the reaction was terminated by transferring 25 μl of the reaction mixture to 150 μl of 10% glutathione Sepharose® slurry (Amersham #27-4574-01) containing 135 mM EDTA. The reaction product was captured on the affinity resin, and washed on a filtration plate (Millipore, MABVNOB50) with phosphate buffered saline for six times to remove free radionucleotide. The incorporation of ^33P into ATF2 was quantified on a microplate scintillation counter (Packard Topcount). Compound inhibition potency on JNK was measured by IC50 value generated from ten concentration inhibition curves fitted into the 3-parameter model: % inhibition=Maximum/(1+(IC50/[Inhibitor])^slope). Data were analyzed on Microsoft Excel for parameter estimation.
For `CCCN1CCC[C@H](NC(=O)[C@H]2CC[C@H](Nc3nccc(-n4ccc5c(OCCCS(C)(=O)=O)cccc54)n3)CC2)C1` (stereo in doubt) [Compound 14, 4-{4-[4-(3-Methanesulfonyl-propoxy)-indol-1-yl]-pyrimidin-2-ylamino}-cyclohexanecarboxylic acid ((R)-1-propyl-piperidin-3-yl)-amide], the IC50 – broadly, the point on the concentration scale where inhibition reaches its midpoint – turned out to be 0.0898 µM.

Regarding `CCN1CCC[C@@H](NC(=O)[C@H]2CC[C@H](Nc3nccc(-n4ccc5c(OCCCS(C)(=O)=O)cccc54)n3)CC2)C1` (stereo in doubt) [Compound 17, 4-{4-[4-(3-Methanesulfonyl-propoxy)-indol-1-yl]-pyrimidin-2-ylamino}-cyclohexanecarboxylic acid ((S)-1-ethyl-piperidin-3-yl)-amide], the midpoint of inhibition, the IC50, lay at 0.116 µM.

The compound `CCOC(=O)[C@@H]1CCCN(C(=O)[C@H]2CC[C@H](Nc3nccc(-n4ccc5c(OCCCS(C)(=O)=O)cccc54)n3)CC2)C1` [Compound 2, (R)-1-(4-{4-[4-(3-Methanesulfonyl-propoxy)-indol-1-yl]-pyrimidin-2-ylamino}-cyclohexanecarbonyl)-piperidine-3-carboxylic acid ethyl ester] had a concentration for half-maximal inhibition (IC50) of 0.0734 µM.

Turning to `CCN1CCN(C(=O)[C@H]2CC[C@H](Nc3nccc(-n4ccc5c(OCC6CCS(=O)(=O)C6)cccc54)n3)CC2)C[C@H]1C` (stereo partly drawn) [Compound 3, (4-{4-[4-(1,1-Dioxo-tetrahydro-1λ^6-thiophen-3-ylmethoxy)-indol-1-yl]-pyrimidin-2-ylamino}-cyclohexyl)-((R)-4-ethyl-3-methyl-piperazin-1-yl)-methanone], half-maximal inhibition (IC50) required 0.0459 µM.

`CCN1CCN(C(=O)[C@H]2CC[C@H](Nc3nccc(-n4ccc5c(OCC6CCS(=O)(=O)C6)cccc54)n3)CC2)C[C@@H]1C` (stereo partly drawn) [Compound 9, (4-{4-[4-(1,1-Dioxo-tetrahydro-1λ^6-thiophen-3-ylmethoxy)-indol-1-yl]-pyrimidin-2-ylamino}-cyclohexyl)-((S)-4-ethyl-3-methyl-piperazin-1-yl)-methanone] showed an IC50 of 0.0194 µM.

`CCCN1CC[C@@H](NC(=O)[C@H]2CC[C@H](Nc3nccc(-n4ccc5c(OCCCS(C)(=O)=O)cccc54)n3)CC2)C1` [Compound 11, 4{4-[4-(3-Methanesulfonyl-propoxy)-indol-1-yl]-pyrimidin-2-ylamino}-cyclohexanecarboxylic acid ((R)-1-propyl-pyrrolidin-3-yl)-amide]: the IC50 was determined as 0.164 µM.

`CCN1CC[C@H](NC(=O)[C@H]2CC[C@H](Nc3nccc(-n4ccc5c(OCCCS(C)(=O)=O)cccc54)n3)CC2)C1` [Compound 13, 4-{4-[4-(3-Methanesulfonyl-propoxy)-indol-1-yl]-pyrimidin-2-ylamino}-cyclohexanecarboxylic acid ((S)-1-ethyl-pyrrolidin-3-yl)-amide] displayed an IC50 of 0.336 µM.

In turn, `CN(CC1CCCCN1C)C(=O)[C@H]1CC[C@H](Nc2nccc(-n3ccc4c(OCCCS(C)(=O)=O)cccc43)n2)CC1` (stereo partly shown) [Compound 19, 4-{4-[4-(3-Methanesulfonyl-propoxy)-indol-1-yl]-pyrimidin-2-ylamino}-cyclohexanecarboxylic acid methyl-(1-methyl-piperidin-2-ylmethyl)-amide] yielded an IC50 of 0.0796 µM.

The compound `CCN1CCCC1CNC(=O)[C@H]1CC[C@H](Nc2nccc(-n3ccc4c(OCCCS(C)(=O)=O)cccc43)n2)CC1` (stereo partly shown) [Compound 20, 4-{4-[4-(3-Methanesulfonyl-propoxy)-indol-1-yl]-pyrimidin-2-ylamino}-cyclohexanecarboxylic acid (1-ethyl-pyrrolidin-2-ylmethyl)-amide] yielded a 50% inhibitory concentration (IC50) of 0.081 µM.

With `CS(=O)(=O)CCCOc1cccc2c1ccn2-c1ccnc(N[C@H]2CC[C@H](C(=O)N3C[C@@H]4C[C@@H]3CN4)CC2)n1` [Compound 21, (1R,4S)-2,5-Diaza-bicyclo[2.2.1]hept-2-yl-(4-{4-[4-(3-methanesulfonyl-propoxy)-indol-1-yl]-pyrimidin-2-ylamino}-cyclohexyl)-methanone], the IC50 is 0.145 µM.
